Columns and labels:
[1] = molecular target: Human norepinephrine transporter (NET) (Homo sapiens, UniProt P23975); test: Binding assay to human norepinephrine transporter (NET); details: expressed as Ki; [3H]-Nisoxetin, human NET enriched membranes
Procedure: Binding Assay to Human Norepinephrine Transporter (NET).
Human norepinephrine transporter (NET) enriched membranes (5 μg) were incubated with 5 nM of radiolabeled [3H]-Nisoxetin in assay buffer containing 50 mM Tris-HCl, 120 mM NaCl, 5 mM KCl, pH 7.4.
(§1) NSB (non specific binding) was measured by adding 10 μM of desipramine. The binding of the test compound was measured at five different concentrations. After 60 min incubation at 4° C., binding reaction was terminated by filtering through Multiscreen GF/C (Millipore) presoaked in 0.5% polyethyleneimine in Vacuum Manifold Station, followed by 3 washes with ice-cold filtration buffer containing 50 mM Tris-HCl, 0.9% NaCl, pH 7.4.
Filter plates were dried at 60° C. for 1 hour and 30 μL of scintillation cocktail were added to each well before radioactivity reading.
Readings were performed in a Trilux 1450 Microbeta radioactive counter (Perkin Elmer).

[2] = molecular target: Human α2δ−1 subunit of Cav2.2 calcium channel (Homo sapiens, UniProt P54289); test: Human α2δ−1 subunit of Cav2.2 calcium channel assay; details: expressed as Ki; [3H]-Gabapentin, human α2δ−1 enriched membranes; read-out: Binding α2δ-1
Procedure: as §1, with “Human α2δ−1 Subunit of Cav2.2 Calcium Channel Assay Human α2δ−1 enriched membranes (2.5 μg) were incubated with 15 nM of radiolabeled [3H]-Gabapentin in assay buffer containing Hepes-KOH 10 mM, pH 7.4. NSB” for “NSB”, “pregabalin.” for “of desipramine.”, “27°” for “4°”, “Tris-HCl,” for “Tris-HCl, 0.9% NaCl,”
Filter plates were dried at 60° C. for 1 hour and 30 μL of scintillation cocktail were added to each well before radioactivity reading. Readings were performed in a Trilux 1450 Microbeta radioactive counter (Perkin Elmer).

Human α2δ−1 subunit of Cav2.2 calcium channel, sequence (P54289 25-1103): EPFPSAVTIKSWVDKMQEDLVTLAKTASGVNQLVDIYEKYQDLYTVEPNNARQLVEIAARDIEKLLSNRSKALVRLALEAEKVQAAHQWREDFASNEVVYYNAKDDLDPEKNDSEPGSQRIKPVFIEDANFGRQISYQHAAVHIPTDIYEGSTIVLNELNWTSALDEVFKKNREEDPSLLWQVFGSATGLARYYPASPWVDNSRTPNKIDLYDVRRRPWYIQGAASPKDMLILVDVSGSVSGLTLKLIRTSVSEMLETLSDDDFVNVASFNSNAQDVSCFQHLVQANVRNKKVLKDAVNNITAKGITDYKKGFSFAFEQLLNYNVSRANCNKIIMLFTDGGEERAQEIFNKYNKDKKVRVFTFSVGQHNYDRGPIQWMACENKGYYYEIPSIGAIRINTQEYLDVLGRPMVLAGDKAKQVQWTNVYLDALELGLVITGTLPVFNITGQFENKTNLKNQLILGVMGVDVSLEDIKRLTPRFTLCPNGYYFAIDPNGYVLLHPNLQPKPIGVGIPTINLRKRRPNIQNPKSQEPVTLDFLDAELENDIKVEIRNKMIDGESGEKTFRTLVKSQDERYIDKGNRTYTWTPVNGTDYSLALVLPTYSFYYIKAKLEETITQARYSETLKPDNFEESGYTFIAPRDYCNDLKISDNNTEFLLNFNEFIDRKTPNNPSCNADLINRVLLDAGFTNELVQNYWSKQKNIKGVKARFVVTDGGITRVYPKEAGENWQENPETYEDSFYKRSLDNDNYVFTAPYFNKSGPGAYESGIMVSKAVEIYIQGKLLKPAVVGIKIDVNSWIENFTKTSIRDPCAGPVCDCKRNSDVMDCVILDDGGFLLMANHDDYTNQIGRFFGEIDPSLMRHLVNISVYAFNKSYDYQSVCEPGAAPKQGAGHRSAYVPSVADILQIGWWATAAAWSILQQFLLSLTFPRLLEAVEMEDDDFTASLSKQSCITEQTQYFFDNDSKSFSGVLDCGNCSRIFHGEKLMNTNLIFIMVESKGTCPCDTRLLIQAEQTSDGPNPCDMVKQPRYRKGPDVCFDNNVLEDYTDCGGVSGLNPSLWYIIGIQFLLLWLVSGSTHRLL
Human norepinephrine transporter (NET), sequence (P23975 whole entry): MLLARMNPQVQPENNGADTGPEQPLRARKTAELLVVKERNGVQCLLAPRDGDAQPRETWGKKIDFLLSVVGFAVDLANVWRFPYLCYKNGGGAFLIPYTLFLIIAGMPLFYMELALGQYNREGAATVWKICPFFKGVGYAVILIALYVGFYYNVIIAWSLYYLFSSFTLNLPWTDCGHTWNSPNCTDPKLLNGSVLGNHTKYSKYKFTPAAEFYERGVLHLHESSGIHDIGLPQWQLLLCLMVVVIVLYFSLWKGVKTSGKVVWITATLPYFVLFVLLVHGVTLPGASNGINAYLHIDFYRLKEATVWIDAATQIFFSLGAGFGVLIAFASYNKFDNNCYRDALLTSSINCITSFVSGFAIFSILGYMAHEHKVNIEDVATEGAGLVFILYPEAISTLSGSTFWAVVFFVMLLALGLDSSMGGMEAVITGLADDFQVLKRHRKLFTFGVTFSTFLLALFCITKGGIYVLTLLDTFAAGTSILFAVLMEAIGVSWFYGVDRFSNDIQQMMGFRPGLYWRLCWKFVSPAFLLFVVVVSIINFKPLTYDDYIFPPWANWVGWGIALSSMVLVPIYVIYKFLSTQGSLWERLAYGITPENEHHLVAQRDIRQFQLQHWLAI

Ki [1]	Ki [2]	SMILES
100 to 500 nM	< 500 nM	CCOc1ccc(-n2nc3c(N4CC[C@H](NCc5ccccc5)C4)nnc(C)c3c2C)c(F)c1 [Example 1, (S)-N-Benzyl-1-(2-(4-ethoxy-2-fluorophenyl)-3,4-dimethyl-2H-pyrazolo[3,4-d]pyridazin-7-yl)pyrrolidin-3-amine]
500 to 1000 nM	< 500 nM	CCOc1ccc(-n2nc3c(N4CC[C@H](NCCc5ccccc5)C4)nnc(C)c3c2C)c(F)c1 [Example 2, (S)-1-(2-(4-ethoxy-2-fluorophenyl)-3,4-dimethyl-2H-pyrazolo[3,4-d]pyridazin-7-yl)-N-phenethylpyrrolidin-3-amine]
100 to 500 nM	< 500 nM	CCOc1ccc(-n2nc3c(N4CC[C@H](NCc5cccc(O)c5)C4)nnc(C)c3c2C)c(F)c1 [Example 3, (S)-3-(((1-(2-(4-ethoxy-2-fluorophenyl)-3,4-dimethyl-2H-pyrazolo[3,4-d]pyridazin-7-yl)pyrrolidin-3-yl)amino)methyl)phenol]
≥ 1000 nM	< 500 nM	CCOc1ccc(-n2nc3c(N4CC[C@H](NCc5ccccn5)C4)nnc(C)c3c2C)c(F)c1 [Example 4, (S)-1-(2-(4-ethoxy-2-fluorophenyl)-3,4-dimethyl-2H-pyrazolo[3,4-d]pyridazin-7-yl)-N-(pyridin-2-ylmethyl)pyrrolidin-3-amine]
≥ 1000 nM	< 500 nM	CCOc1ccc(-n2nc3c(N4CC[C@H](NCCc5ccc(F)cc5)C4)nnc(C)c3c2C)c(F)c1 [Example 5, (S)-1-(2-(4-ethoxy-2-fluorophenyl)-3,4-dimethyl-2H-pyrazolo[3,4-d]pyridazin-7-yl)-N-(4-fluorophenethyl)pyrrolidin-3-amine]
500 to 1000 nM	< 500 nM	CCOc1ccc(-n2nc3c(N4CC[C@H](NCc5cccc(OC)c5)C4)nnc(C)c3c2C)c(F)c1 [Example 6, (S)-1-(2-(4-ethoxy-2-fluorophenyl)-3,4-dimethyl-2H-pyrazolo[3,4-d]pyridazin-7-yl)-N-(3-methoxybenzyl)pyrrolidin-3-amine]
< 100 nM	< 500 nM	CCOc1ccc(-n2nc3c(N4CC[C@H](NCc5ccc(F)c(F)c5)C4)nnc(C)c3c2C)c(F)c1 [Example 7, (S)-N-(3,4-difluorobenzyl)-1-(2-(4-ethoxy-2-fluorophenyl)-3,4-dimethyl-2H-pyrazolo[3,4-d]pyridazin-7-yl)pyrrolidin-3-amine]
100 to 500 nM	< 500 nM	CCOc1ccc(-n2nc3c(N4CC[C@@H](NCc5cccc(O)c5)C4)nnc(C)c3c2C)c(F)c1 [Example 8, (R)-3-(((1-(2-(4-ethoxy-2-fluorophenyl)-3,4-dimethyl-2H-pyrazolo[3,4-d]pyridazin-7-yl)pyrrolidin-3-yl)amino)methyl)phenol]
100 to 500 nM	< 500 nM	CCOc1ccc(-n2nc3c(N4CC[C@H](NCc5ccccc5O)C4)nnc(C)c3c2C)c(F)c1 [Example 9, (S)-2-(((1-(2-(4-ethoxy-2-fluorophenyl)-3,4-dimethyl-2H-pyrazolo[3,4-d]pyridazin-7-yl)pyrrolidin-3-yl)amino)methyl)phenol]
100 to 500 nM	< 500 nM	CCOc1ccc(-n2nc3c(N4CC[C@@H](NCc5ccccc5)C4)nnc(C)c3c2C)c(F)c1 [Example 10, (R)-N-benzyl-1-(2-(4-ethoxy-2-fluorophenyl)-3,4-dimethyl-2H-pyrazolo[3,4-d]pyridazin-7-yl)pyrrolidin-3-amine]
500 to 1000 nM	< 500 nM	CCOc1ccc(-n2nc3c(N4CC[C@H](NCc5cccnc5)C4)nnc(C)c3c2C)c(F)c1 [Example 11, (S)-1-(2-(4-ethoxy-2-fluorophenyl)-3,4-dimethyl-2H-pyrazolo[3,4-d]pyridazin-7-yl)-N-(pyridin-3-ylmethyl)pyrrolidin-3-amine]
≥ 1000 nM	< 500 nM	CCOc1ccc(-n2nc3c(N4CC[C@H](NCc5ccncc5)C4)nnc(C)c3c2C)c(F)c1 [Example 12, (S)-1-(2-(4-ethoxy-2-fluorophenyl)-3,4-dimethyl-2H-pyrazolo[3,4-d]pyridazin-7-yl)-N-(pyridin-4-ylmethyl)pyrrolidin-3-amine]
500 to 1000 nM	< 500 nM	CCOc1ccc(-n2nc3c(N4CC[C@H](NCc5ncccc5F)C4)nnc(C)c3c2C)c(F)c1 [Example 13, (S)-1-(2-(4-ethoxy-2-fluorophenyl)-3,4-dimethyl-2H-pyrazolo[3,4-d]pyridazin-7-yl)-N-((3-fluoropyridin-2-yl)methyl)pyrrolidin-3-amine]
≥ 1000 nM	≥ 5000 nM	CCOc1ccc(-n2nc3c(N4CC[C@H](NCc5cncc(F)c5)C4)nnc(C)c3c2C)c(F)c1 [Example 14, (S)-1-(2-(4-ethoxy-2-fluorophenyl)-3,4-dimethyl-2H-pyrazolo[3,4-d]pyridazin-7-yl)-N-((5-fluoropyridin-3-yl)methyl)pyrrolidin-3-amine]
≥ 1000 nM	< 500 nM	CCOc1ccc(-n2nc3c(N4CC[C@H](N(C)Cc5cccc(O)c5)C4)nnc(C)c3c2C)c(F)c1 [Example 15, (S)-3-(((1-(2-(4-Ethoxy-2-fluorophenyl)-3,4-dimethyl-2H-pyrazolo[3,4-d]pyridazin-7-yl)pyrrolidin-3-yl)(methyl)amino)methyl)phenol]
500 to 1000 nM	< 500 nM	CCOc1ccc(-n2nc3c(N4CC[C@H](N(C)Cc5ccccc5)C4)nnc(C)c3c2C)c(F)c1 [Example 16, (S)-N-benzyl-1-(2-(4-ethoxy-2-fluorophenyl)-3,4-dimethyl-2H-pyrazolo[3,4-d]pyridazin-7-yl)-N-methylpyrrolidin-3-amine]
≥ 1000 nM	500 to 5000 nM	CCOc1ccc(-n2nc3c(N4CCC[C@H](N(C)C)C4)nnc(C)c3c2C)c(F)c1 [Example 17, (S)-1-(2-(4-ethoxy-2-fluorophenyl)-3,4-dimethyl-2H-pyrazolo[3,4-d]pyridazin-7-yl)-N,N-dimethylpiperidin-3-amine]
≥ 1000 nM	< 500 nM	CCOc1ccc(-n2nc3c(N4CC[C@H](NC(=O)Cc5ccccn5)C4)nnc(C)c3c2C)c(F)c1 [Example 18, (S)-N-(1-(2-(4-Ethoxy-2-fluorophenyl)-3,4-dimethyl-2H-pyrazolo[3,4-d]pyridazin-7-yl)pyrrolidin-3-yl)-2-(pyridin-2-yl)acetamide]
≥ 1000 nM	< 500 nM	CCOc1ccc(-n2nc3c(N4CC[C@H](NC(=O)Cc5cccnc5)C4)nnc(C)c3c2C)c(F)c1 [Example 19, (S)-N-(1-(2-(4-ethoxy-2-fluorophenyl)-3,4-dimethyl-2H-pyrazolo[3,4-d]pyridazin-7-yl)pyrrolidin-3-yl)-2-(pyridin-3-yl)acetamide]

From US20200062767A1, “SUBSTITUTED PYRROLIDINYL AND PIPERIDINYL PYRAZOLOPYRIDAZINE DERIVATIVES HAVING MULTIMODAL ACTIVITY AGAINST PAIN” (ESTEVE PHARMACEUTICALS, S.A., priority 2017, published 2020)
